This note sets out measurements from ChEMBL document CHEMBL1134332, “Design of remarkably simple, yet potent urea-based inhibitors of glutamate carboxypeptidase II (NAALADase)” (J Med Chem, 2001).

As usually defined, the IC50 is the concentration that inhibits the measured activity by half. Lower therefore signals greater potency. What is called inhibition is the relative decrease from the control value, in per cent. A high value points to a response far below the control.

The source made the active and inactive calls. The rule behind the calls is not given here. Peptide text beside a SMILES is read from it.

The target of experiment [1] is T1, Glutamate carboxypeptidase 2 (Rattus norvegicus, UniProt P70627). Briefly: Inhibitory activity against expressed rat Glutamate carboxypeptidase II, using a substrate concentration of 5 uM.
Experiment [2] addresses Glutamate carboxypeptidase 2 (Rattus norvegicus) (UniProt P70627). Briefly: Percentage inhibition at 100 uM.
For experiment [3] the target is unchanged. Briefly: Percentage inhibition at 1 uM against rat Glutamate carboxypeptidase II using a substrate concentration of 5 uM.
Experiment [4] deals with T1, Glutamate carboxypeptidase 2. Briefly: Inhibitory activity against expressed rat Glutamate carboxypeptidase IIusing a substrate concentration of 5 uM.
The target of experiment [5] is Glutamate carboxypeptidase 2 (Rattus norvegicus) (UniProt P70627). Briefly: Percentage inhibition at 1 uM against rat Glutamate carboxypeptidase II, using a substrate concentration of 5 uM.
For experiment [6] the target is unchanged. In words: Percentage inhibition at 1 uM; IA means inactive.

Sequence of Glutamate carboxypeptidase 2 (Rattus norvegicus) (P70627 whole entry, looked up): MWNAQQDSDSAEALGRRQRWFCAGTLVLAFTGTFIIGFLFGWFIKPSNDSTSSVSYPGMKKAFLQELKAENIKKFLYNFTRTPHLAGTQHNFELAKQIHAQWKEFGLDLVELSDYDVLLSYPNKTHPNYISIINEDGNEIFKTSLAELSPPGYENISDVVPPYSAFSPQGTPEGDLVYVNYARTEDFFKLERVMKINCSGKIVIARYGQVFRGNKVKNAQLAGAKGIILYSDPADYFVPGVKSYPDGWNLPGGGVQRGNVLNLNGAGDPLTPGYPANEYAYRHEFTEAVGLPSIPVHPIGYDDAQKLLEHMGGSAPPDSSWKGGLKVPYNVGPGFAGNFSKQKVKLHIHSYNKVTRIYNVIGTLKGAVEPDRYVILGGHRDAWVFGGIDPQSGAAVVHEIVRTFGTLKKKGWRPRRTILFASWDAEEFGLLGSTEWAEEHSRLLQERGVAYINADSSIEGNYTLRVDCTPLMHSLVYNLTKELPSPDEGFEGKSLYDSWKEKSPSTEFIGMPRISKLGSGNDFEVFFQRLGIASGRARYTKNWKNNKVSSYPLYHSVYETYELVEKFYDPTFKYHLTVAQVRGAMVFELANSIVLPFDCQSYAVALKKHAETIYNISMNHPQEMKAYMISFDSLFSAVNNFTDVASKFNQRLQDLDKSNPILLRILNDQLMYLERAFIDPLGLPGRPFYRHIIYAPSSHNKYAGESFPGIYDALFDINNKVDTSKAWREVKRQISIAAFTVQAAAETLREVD
T1 sequence (P70627 whole entry): as the sequence (P70627 whole entry, looked up) above

Take `O=C(O)CCC(CP(=O)(O)O)C(=O)O` (stereo unspecified): in experiment [1], the IC50 worked out at 5.1 nM.
Consider `N[C@@H](CC(=O)O)C(=O)N[C@@H](CC(=O)O)C(=O)O` (H-Asp-Asp-OH), for which the inhibition in experiment [2] turned out to be 42%.
The compound `CC(C)(C)NC(=O)N[C@@H](CCC(=O)O)C(=O)O` registered an inhibition in experiment [3] of 10%.
As for `N[C@@H](CCC(=O)O)C(=O)N[C@@H](CCC(=O)O)C(=O)O` (H-Glu-Glu-OH), half-maximal inhibition in experiment [1] (IC50) was put at 750 nM.
`O=C(O)CC[C@H](NC(=O)N[C@@H](CS)C(=O)O)C(=O)O`: the IC50 in experiment [1] stood at 6.9 nM. This IC50 is about 110-fold lower than that of the compound before.
In the case of `N[C@@H](CC(=O)O)C(=O)N[C@@H](CCC(=O)O)C(=O)O` (H-Asp-Glu-OH), in experiment [4], the 50% inhibitory concentration (IC50) was determined as 2400 nM.
For `O=C(O)CC[C@H](CP(=O)(O)C[C@@H](CCC(=O)O)C(=O)O)C(=O)O`, in experiment [1], half-maximal inhibition (IC50) required 21.7 nM.
In the case of `O=C(O)CC[C@H](NC(=O)C(=O)N[C@@H](CCC(=O)O)C(=O)O)C(=O)O`, the inhibition in experiment [5] worked out at 9%.
In experiment [1], `CC(C)(C)SCC(NC(=O)N[C@@H](CCC(=O)O)C(=O)O)C(=O)O` (stereo partly specified) had an IC50 of 29 nM.
`O=C(N[C@@H](CS)C(=O)O)N[C@@H](CS)C(=O)O`: in experiment [6], the IA entry was “inactive”.
`O=C(O)CC[C@H](NC(=O)NCC(=O)O)C(=O)O`: the inhibition in experiment [3] turned out to be 46%.
